Measured values published in patent publication US6737383B1, “Herbicidal oxadiazolidines” (priority 1999, dated 2004).

What was measured:
maize hybrid P33G26 = experiment: Test G maize injury with safener-treated seed; conditions: 28 days after application
Procedure, shortened: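 Maize hybrid P33G26 seed, treated with dichlormid, fenchlorazole-ethyl or naphthalic anhydride or left untreated, was sown in soil pots, then sprayed pre-emergence with several compound rates at 310 L/ha. Plants grew in a greenhouse (14 h day, about 27/24 °C day/night), with 4–5 replicates. Injury was scored visually against untreated controls 28 days after application.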

Green foxtail = experiment: Test D green foxtail; type: in vivo; conditions: Postemergence, 0 to 100 scale

Compound	Mean plant response rating, maize (maize hybrid P33G26; Safener Dichlormid (seed treatment), Rate 140 g ai/ha) [percent control]	Mean plant response rating, maize (maize hybrid P33G26; Safener Dichlormid (seed treatment), Rate 280 g ai/ha) [percent control]	Mean plant response rating, maize (maize hybrid P33G26; Safener Dichlormid (seed treatment), Rate 560 g ai/ha) [percent control]	Mean plant response rating, maize (maize hybrid P33G26; Safener Dichlormid (seed treatment), Rate 1120 g ai/ha) [percent control]	Mean plant response rating, maize (maize hybrid P33G26; Safener Fenchlorazole-ethyl (seed treatment), Rate 140 g ai/ha) [percent control]	Mean plant response rating, maize (maize hybrid P33G26; Safener Fenchlorazole-ethyl (seed treatment), Rate 280 g ai/ha) [percent control]	Mean plant response rating, maize (maize hybrid P33G26; Safener Fenchlorazole-ethyl (seed treatment), Rate 560 g ai/ha) [percent control]	Mean plant response rating, maize (maize hybrid P33G26; Safener Fenchlorazole-ethyl (seed treatment), Rate 1120 g ai/ha) [percent control]	Mean plant response rating, maize (maize hybrid P33G26; Safener None, Rate 140 g ai/ha) [percent control]	Mean plant response rating, maize (maize hybrid P33G26; Safener None, Rate 280 g ai/ha) [percent control]	Mean plant response rating, maize (maize hybrid P33G26; Safener None, Rate 560 g ai/ha) [percent control]	Mean plant response rating, maize (maize hybrid P33G26; Safener None, Rate 1120 g ai/ha) [percent control]	Mean plant response rating, maize (maize hybrid P33G26; Safener naphthalic anhydride (seed treatment), Rate 140 g ai/ha) [percent control]	Mean plant response rating, maize (maize hybrid P33G26; Safener naphthalic anhydride (seed treatment), Rate 1120 g ai/ha) [percent control]	Plant response rating, Green foxtail (Green foxtail; Rate 250 g/ha)	Plant response rating, Green foxtail (Green foxtail; Rate 500 g/ha)
C=CCn1c(=O)on(C(=O)N(c2ccc(F)cc2)C(C)C)c1=O [Compound 146]	1	1	4	4	3	74	78	85	49	73	80	85	0	35		
CC(C)N(C(=O)n1oc(=O)n(C2CC2)c1=O)c1ccc(F)cc1F [Compound 299]															100	100
